Here are results for 9 compounds from ChEMBL document CHEMBL5370547, “NSD3: Advances in cancer therapeutic potential and inhibitors research” (Eur J Med Chem, 2023).

Starred links: 1 amine or outer side, 2 acyl side, 3 side chain; linkers in the order of their positions; H or OH if unused. Non-standard residues stand in square brackets, D forms with d. Residues, ends and D or L forms follow the SMILES beside them. X1 = CCC[C@H](C)[C@H](N[*:1])C(=O)[*:2]

Assay [1] addresses T1, Histone-lysine N-methyltransferase NSD3 (Homo sapiens, UniProt Q9BZ95).
T1 sequence (Q9BZ95 whole entry): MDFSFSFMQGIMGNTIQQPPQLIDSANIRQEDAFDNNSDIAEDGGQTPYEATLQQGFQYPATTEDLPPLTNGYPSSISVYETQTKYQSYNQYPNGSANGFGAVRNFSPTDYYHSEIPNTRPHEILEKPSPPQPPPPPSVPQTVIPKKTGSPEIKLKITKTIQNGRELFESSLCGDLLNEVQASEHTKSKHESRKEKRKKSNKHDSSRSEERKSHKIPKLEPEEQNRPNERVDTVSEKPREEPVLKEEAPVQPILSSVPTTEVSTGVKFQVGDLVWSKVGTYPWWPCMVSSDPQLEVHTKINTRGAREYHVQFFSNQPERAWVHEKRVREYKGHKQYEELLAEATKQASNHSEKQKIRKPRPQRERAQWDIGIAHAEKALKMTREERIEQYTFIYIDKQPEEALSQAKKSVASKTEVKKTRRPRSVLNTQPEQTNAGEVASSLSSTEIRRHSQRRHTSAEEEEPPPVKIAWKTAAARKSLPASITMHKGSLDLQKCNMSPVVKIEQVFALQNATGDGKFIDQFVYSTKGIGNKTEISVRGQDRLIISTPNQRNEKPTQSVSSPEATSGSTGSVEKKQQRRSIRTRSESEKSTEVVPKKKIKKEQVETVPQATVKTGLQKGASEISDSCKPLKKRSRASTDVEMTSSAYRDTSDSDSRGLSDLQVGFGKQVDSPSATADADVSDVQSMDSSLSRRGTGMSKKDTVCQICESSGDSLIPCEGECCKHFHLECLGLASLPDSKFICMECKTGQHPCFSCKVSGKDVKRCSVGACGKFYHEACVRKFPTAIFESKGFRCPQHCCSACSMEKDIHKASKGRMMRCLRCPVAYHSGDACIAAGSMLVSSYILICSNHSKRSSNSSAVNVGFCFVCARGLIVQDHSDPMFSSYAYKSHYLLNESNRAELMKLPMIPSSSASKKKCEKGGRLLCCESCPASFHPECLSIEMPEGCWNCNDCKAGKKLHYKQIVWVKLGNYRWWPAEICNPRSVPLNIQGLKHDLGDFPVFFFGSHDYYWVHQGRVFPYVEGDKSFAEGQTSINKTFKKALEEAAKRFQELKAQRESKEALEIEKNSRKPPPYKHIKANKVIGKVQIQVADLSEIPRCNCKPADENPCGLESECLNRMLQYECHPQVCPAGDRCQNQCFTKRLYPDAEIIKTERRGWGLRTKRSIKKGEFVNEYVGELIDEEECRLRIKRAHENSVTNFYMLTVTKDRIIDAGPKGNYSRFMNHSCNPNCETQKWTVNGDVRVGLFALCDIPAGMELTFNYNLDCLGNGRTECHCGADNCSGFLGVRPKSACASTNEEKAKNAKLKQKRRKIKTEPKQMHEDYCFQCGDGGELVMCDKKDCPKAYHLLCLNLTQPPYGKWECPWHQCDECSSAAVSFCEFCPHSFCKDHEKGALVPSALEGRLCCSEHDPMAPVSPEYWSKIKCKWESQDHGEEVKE
Kind of assay: Inhibition of NSD3 PWWP1 domain (unknown origin) by TR-FRET assay. In general terms: TR-FRET usually uses a lanthanide donor and a delayed reading to cut background.

The target in assay [2] is T1, Histone-lysine N-methyltransferase NSD3. Kind of assay: Inhibition of NSD3 PWWP1 domain (unknown origin) assessed as […] by SPR analysis.
Assay [3] has the same target. Kind of assay: Inhibition of human NSD3 overexpressed in Escherichia coli BL21(DE3) using nucleosome as substrate by SPA analysis.
The target of assay [4] is T2, Histone-lysine N-methyltransferase NSD2 (Homo sapiens, UniProt O96028).
T2 sequence (O96028 whole entry): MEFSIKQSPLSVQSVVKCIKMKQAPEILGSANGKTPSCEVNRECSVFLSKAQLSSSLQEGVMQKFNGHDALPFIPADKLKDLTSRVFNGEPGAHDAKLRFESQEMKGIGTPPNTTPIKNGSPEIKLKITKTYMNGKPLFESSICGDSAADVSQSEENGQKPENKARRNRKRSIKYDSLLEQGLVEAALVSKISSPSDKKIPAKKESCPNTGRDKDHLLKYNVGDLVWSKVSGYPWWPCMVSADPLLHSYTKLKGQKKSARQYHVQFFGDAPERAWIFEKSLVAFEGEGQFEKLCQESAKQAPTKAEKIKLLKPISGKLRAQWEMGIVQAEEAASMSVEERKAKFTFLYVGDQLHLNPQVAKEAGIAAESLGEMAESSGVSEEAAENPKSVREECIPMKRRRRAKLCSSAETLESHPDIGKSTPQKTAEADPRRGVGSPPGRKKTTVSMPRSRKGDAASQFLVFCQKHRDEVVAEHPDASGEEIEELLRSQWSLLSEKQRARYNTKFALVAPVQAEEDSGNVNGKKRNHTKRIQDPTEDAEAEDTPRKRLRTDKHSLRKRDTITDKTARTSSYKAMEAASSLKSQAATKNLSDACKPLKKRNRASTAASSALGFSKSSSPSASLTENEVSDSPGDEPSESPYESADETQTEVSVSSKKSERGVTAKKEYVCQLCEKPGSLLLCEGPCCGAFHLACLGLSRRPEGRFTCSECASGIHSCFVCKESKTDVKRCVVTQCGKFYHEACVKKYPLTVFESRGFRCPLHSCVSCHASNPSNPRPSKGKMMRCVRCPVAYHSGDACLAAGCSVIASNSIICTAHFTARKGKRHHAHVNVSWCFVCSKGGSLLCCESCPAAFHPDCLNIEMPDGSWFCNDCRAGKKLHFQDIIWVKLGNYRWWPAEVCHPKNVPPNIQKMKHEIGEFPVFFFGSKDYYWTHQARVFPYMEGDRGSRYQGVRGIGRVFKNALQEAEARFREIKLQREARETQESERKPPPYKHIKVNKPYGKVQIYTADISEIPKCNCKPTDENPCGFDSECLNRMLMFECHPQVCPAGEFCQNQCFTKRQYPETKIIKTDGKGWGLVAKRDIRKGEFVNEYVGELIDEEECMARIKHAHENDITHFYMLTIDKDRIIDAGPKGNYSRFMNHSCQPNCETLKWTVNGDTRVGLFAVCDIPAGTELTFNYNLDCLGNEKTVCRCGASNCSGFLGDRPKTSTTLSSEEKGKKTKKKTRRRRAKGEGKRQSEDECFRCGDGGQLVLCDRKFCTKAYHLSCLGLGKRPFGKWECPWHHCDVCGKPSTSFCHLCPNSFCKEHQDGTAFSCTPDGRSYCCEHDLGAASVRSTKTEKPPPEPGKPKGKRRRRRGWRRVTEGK
Kind of assay: Inhibition of human NSD2 overexpressed in Escherichia coli BL21(DE3) using nucleosome as substrate by SPA analysis.

A short description of assay [5]: Antiproliferative activity against human RN 22 cells assessed as cell growth inhibition measured after 6 days by RealTime-Glow MT cell viability assay. It counts as functional, cell-based. Particulars: RN 22, 144 h.
Assay [6] can be described thus: Inhibition of C-terminal NanoLuc-tagged human NSD3 PWWP1 domain/ C-terminal HaloTag fused histone H3 (unknown origin) interaction transfected in human U2OS cells. It counts as cell-based.
Assay [7] relates to MOLM-13. The assay can be described thus: Antiproliferative activity against human MOLM-13 cells assessed as cell growth inhibition measured after 6 days by RealTime-Glow MT cell viability assay. It counts as functional, cell-based. The conditions noted are these: MOLM-13, 144 h.
Assay [8] deals with MOLM-13. Kind of assay: Antiproliferative activity against human MOLM-13 cells assessed as cell growth inhibition measured after 6 days in presence of JQ1 by RealTime-Glow MT cell viability assay. Format: functional, cell-based. Particulars: MOLM-13, 144 h.
Assay [9] has as its target T3, Histone-lysine N-methyltransferase, H3 lysine-36 specific (Homo sapiens, UniProt Q96L73). Kind of assay: Inhibition of human NSD1 overexpressed in Escherichia coli BL21(DE3) using nucleosome as substrate by SPA analysis.
For assay [10], the target named is T1, Histone-lysine N-methyltransferase NSD3. The assay can be described thus: Inhibition of N-terminal GST-fused recombinant human NSD3 (1021 to 1322 residues) expressed in Escherichia coli using SAM as substrate preincubated for 20 mins followed by substrate addition measured after 1 hrs by hotspot assay.
The target of assay [11] is T3, Histone-lysine N-methyltransferase, H3 lysine-36 specific. Kind of assay: Inhibition of N-terminal polyhistidine-tagged recombinant human NSD1 (1538 to 2696 residues) expressed in baculovirus infected insect cell using SAM as substrate preincubated for 20 mins followed by substrate addition measured after 1 hrs by hotspot assay.
Assay [12] addresses T2, Histone-lysine N-methyltransferase NSD2. The assay can be described thus: Inhibition of N-terminal GST-tagged human NSD2 (941 to 1240 residues ) expressed in Escherichia coli using 3[H] SAM as substrate measured after 30 mins by biochemical assay.
For assay [13], the target named is T1, Histone-lysine N-methyltransferase NSD3. The assay can be described thus: Inhibition of N-terminal His-TEV-tagged human NSD3 (1054 to 1285 residues ) expressed in Escherichia coli using 3[H] SAM as substrate measured after 30 mins by biochemical assay.
The next assay deals with MM1.S. The assay can be described thus: Antiproliferative activity against human MM1.S cells assessed as cell growth inhibition measured after 8 days. It counts as functional, cell-based. The conditions noted are these: 192 h.
For a further assay, the system named is EOL1. The assay can be described thus: Antiproliferative activity against human EOL1 cells assessed as cell growth inhibition measured after 8 days. Particulars: EOL1, 192 h. It counts as functional, cell-based.
The test system of another assay is RS4-11. The assay can be described thus: Antiproliferative activity against human RS4-11 cells assessed as cell growth inhibition measured after 8 days. Format: functional, cell-based. Particulars: RS4-11, 192 h.
Assay [14] concerns the target T1, Histone-lysine N-methyltransferase NSD3. Kind of assay: Binding affinity to human NSD3 […] domain (247 to 402 residues) expressed in Escherichia coli assessed as dissociation constant.
Assay [15] has as its target von Hippel-Lindau disease tumor suppressor/Histone-lysine N-methyltransferase NSD3 (Homo sapiens, UniProt P40337+Q9BZ95). Kind of assay: PROTAC activity at VHL/NSD3 […] domain in human MOLM-13 cells assessed as […] measured after 48 hrs by immunoblotting analysis. Format: cell-based. In general terms: A western blot detects proteins with antibodies after separation by electrophoresis.

T3 sequence (Q96L73 whole entry, the tested form may be a part): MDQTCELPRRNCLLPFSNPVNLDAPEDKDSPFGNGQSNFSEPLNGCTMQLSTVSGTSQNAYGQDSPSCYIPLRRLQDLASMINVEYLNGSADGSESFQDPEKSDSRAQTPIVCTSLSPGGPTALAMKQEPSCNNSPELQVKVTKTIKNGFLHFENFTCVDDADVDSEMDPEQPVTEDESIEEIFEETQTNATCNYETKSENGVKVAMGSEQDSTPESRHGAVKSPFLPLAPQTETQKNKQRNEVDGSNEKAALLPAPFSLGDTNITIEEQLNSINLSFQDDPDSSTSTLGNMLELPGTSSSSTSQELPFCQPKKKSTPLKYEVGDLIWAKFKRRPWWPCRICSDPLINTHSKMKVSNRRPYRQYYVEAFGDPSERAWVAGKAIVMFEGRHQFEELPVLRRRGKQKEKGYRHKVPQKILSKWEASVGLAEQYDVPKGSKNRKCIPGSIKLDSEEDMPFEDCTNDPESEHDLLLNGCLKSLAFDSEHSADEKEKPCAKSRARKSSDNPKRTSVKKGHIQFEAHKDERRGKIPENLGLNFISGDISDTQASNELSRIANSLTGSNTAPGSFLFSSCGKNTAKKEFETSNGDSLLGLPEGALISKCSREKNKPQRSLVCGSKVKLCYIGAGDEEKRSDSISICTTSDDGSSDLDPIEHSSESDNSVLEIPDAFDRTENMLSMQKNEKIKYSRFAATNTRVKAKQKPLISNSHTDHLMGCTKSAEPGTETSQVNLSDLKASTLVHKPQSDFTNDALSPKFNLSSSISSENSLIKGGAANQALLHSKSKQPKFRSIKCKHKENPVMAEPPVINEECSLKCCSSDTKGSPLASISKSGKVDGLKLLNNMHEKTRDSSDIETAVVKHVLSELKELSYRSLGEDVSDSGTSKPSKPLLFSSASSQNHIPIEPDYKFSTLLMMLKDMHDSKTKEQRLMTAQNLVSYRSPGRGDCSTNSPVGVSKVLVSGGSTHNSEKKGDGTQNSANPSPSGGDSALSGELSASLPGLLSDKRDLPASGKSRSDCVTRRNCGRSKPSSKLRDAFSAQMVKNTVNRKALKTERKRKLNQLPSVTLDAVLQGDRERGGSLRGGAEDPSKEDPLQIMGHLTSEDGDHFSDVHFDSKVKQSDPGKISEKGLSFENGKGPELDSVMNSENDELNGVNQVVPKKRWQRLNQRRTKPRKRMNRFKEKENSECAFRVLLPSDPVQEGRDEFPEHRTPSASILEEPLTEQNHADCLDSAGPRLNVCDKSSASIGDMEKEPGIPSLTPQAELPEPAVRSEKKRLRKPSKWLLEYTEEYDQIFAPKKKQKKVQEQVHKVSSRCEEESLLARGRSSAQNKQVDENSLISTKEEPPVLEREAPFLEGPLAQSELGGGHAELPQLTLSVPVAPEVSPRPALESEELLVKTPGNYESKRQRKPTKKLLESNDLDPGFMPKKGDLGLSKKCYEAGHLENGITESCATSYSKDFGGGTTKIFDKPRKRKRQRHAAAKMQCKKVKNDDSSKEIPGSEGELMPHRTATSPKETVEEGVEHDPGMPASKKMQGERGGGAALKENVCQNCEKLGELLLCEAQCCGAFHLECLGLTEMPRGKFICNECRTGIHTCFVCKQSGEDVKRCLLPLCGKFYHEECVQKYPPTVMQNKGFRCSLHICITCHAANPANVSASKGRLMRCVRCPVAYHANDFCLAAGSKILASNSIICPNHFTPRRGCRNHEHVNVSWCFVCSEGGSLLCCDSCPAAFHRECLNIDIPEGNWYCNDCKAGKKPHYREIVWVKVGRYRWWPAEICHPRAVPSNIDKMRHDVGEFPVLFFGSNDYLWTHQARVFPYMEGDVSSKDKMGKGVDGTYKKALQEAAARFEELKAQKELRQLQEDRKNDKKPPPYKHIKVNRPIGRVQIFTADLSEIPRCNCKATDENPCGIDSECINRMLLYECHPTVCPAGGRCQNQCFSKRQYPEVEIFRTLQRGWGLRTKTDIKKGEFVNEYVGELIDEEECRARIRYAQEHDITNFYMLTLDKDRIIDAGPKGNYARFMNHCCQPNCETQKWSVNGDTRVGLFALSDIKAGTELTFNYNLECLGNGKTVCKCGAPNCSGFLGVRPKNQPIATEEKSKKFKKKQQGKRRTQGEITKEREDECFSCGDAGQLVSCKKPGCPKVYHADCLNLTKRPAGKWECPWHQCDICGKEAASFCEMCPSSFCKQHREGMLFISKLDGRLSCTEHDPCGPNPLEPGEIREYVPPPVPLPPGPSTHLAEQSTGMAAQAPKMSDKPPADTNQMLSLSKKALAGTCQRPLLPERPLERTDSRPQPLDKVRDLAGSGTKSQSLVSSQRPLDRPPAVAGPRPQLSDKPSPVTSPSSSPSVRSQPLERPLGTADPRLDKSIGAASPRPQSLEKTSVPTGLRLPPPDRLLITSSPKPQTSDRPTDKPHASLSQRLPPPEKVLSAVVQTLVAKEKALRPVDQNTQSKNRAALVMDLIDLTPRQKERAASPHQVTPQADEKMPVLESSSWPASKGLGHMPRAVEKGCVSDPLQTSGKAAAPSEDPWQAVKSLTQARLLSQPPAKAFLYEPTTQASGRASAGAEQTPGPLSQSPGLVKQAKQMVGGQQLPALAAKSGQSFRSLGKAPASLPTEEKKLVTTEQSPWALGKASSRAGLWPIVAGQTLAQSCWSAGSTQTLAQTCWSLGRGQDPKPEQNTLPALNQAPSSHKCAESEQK
Chain of von Hippel-Lindau disease tumor suppressor/Histone-lysine N-methyltransferase NSD3 (P40337 whole entry, one chain of several): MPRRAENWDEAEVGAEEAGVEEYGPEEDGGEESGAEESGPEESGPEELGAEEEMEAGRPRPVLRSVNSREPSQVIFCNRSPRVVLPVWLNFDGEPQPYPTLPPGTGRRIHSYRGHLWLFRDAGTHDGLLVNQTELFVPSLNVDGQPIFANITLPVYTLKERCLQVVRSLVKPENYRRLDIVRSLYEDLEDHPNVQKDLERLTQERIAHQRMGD

As to `Cc1cc(CN)cc(C)c1-c1ncn(C)c1-c1ccncc1`, 5.2 µM corresponded to half-maximal inhibition in assay [1] (IC50). In addition, the Kd in assay [2] worked out at 9.7 µM.

Take `Cc1ccc(C(=O)Nc2ccc(S(=O)(=O)O)c3cc(S(=O)(=O)O)cc(S(=O)(=O)O)c23)cc1NC(=O)c1cccc(NC(=O)Nc2cccc(C(=O)Nc3cc(C(=O)Nc4ccc(S(=O)(=O)O)c5cc(S(=O)(=O)O)cc(S(=O)(=O)O)c45)ccc3C)c2)c1` [SURAMIN]: the IC50 is 12 µM in assay [3] and 21 µM in assay [4].

Regarding `Cc1cc(CN)cc(C)c1-c1ncn(C)c1-c1ccnc2cc(F)ccc12`, the IC50 in [5] was determined as 13 µM; in assay [6] it was 1.2 µM; with MOLM-13 [7], 26.8 µM; with MOLM-13 [8], 0.139 µM.

On to `Cc1noc(C)c1-c1ncn(C)c1-c1ccnc2cc(F)ccc12`, for which half-maximal inhibition in assay [1] (IC50) was put at 1.9 µM. Besides, the Kd in [2] came to 6.8 µM.

`CN1C(=O)[C@@]23C[C@]4([C@]56C[C@@]78SS[C@@](CO)(C(=O)N7[C@H]5Nc5ccccc56)N(C)C8=O)c5ccccc5N[C@@H]4N2C(=O)[C@]1(CO)SS3` [CHAETOCIN]: the half-inhibitory concentration (IC50) in assay [3] worked out at 11 µM; in assay [9], 16 µM; in assay [10], 3.2 µM; in [4] it was 6 µM.

`O=C1C(Cl)=C(NCCN2CCOCC2)C(=O)c2ncccc21`: the IC50 in assay [11] was found to be 0.11 µM; in assay [10] it was 0.26 µM.

As to `CCC[C@H](C)[C@H](NC(=O)[C@@H](NC(=O)CNC(C)=O)C(C)C)C(=O)N[C@@H](CCCNC(=N)N)C(=O)N[C@H](C(N)=O)[C@@H](C)CC` (Ac-GV[X1]RI-NH2), the IC50 in assay [12] was determined as 22 µM; in assay [13], 3.2 µM.

On to `Cc1cc(CNCCCC(=O)NCCCCCCCCC(=O)N[C@H](C(=O)N2C[C@@H](O)C[C@@H]2C(=O)N[C@H](C)c2ccc(-c3scnc3C)cc2)C(C)(C)C)cc(C)c1-c1ncn(C)c1-c1ccnc2cc(F)ccc12`, for which the EC50 in the assay with MM1.S was determined as 3.3 µM; in the assay on EOL1, 2.3 µM; with RS4-11, 3.5 µM; in [15] it was 4.9 µM. Besides, the equilibrium dissociation constant (Kd) in assay [14] is 1.3 µM.

In the case of `Nc1ncnc2c1ncn2[C@@H]1O[C@H](C[C@@H](N)CC[C@H](N)C(=O)O)[C@@H](O)[C@H]1O` [SINEFUNGIN], in [9], the IC50 was found to be 46 µM.

As a reminder, the IC50 is the concentration needed to halve the response being measured. The Kd is the constant that tells how readily two partners part at equilibrium. By EC50 is commonly meant the midpoint of the concentration-response curve.
